In ChEMBL document CHEMBL1130365, “4-Sulfonamidoanilide tertiary carbinols: A novel series of potassium channel openers” (Bioorg Med Chem Lett, 1997):

Target: Sulfonylurea receptors; K-ATP channels (Homo sapiens, UniProt O60706+Q09428+Q14654+Q15842)
Assay: Compound was measured in vitro for potassium channel opening (PCO) activity
Type: protein-complex assay, Cavia porcellus

| Compound | IC50 [µM] |
| --- | --- |
| CC(O)(C(=O)Nc1ccc(/C(=N\O)c2ccccc2)cc1)C(F)(F)F (mixture of isomers) | > 30 |
| CC(O)(C(=O)Nc1ccc([C@@H](O)c2ccccc2)cc1)C(F)(F)F (mixture of isomers) | > 30 |
| CC(O)(C(=O)Nc1ccc(S(=O)(=O)N(c2ccccc2)c2ccccc2)cc1)C(F)(F)F (racemic) | > 30 |
| CO/N=C(/c1ccccc1)c1ccc(NC(=O)C(C)(O)C(F)(F)F)cc1 (racemic) | > 30 |
| CC(O)(C(=O)Nc1ccc(S(=O)(=O)Nc2ccccc2)cc1)C(F)(F)F (racemic) | > 30 |
| CCN(CC)C(=O)c1ccc(NC(=O)C(C)(O)C(F)(F)F)cc1 (racemic) | > 30 |
| CC(O)(C(=O)Nc1ccc(S(=O)(=O)N2CCSCC2)cc1)C(F)(F)F (racemic) | 4.58 |
| CCC(C)N(C(C)CC)S(=O)(=O)c1ccc(NC(=O)C(C)(O)C(F)(F)F)cc1 (racemic) | > 30 |
| CC(O)(C(=O)Nc1ccc(Sc2ccccc2)cc1)C(F)(F)F (racemic) | > 30 |
| CN(C)S(=O)(=O)c1ccc(NC(=O)C(C)(O)C(F)(F)F)cc1 (racemic) | 0.48 |
| CCCN(CCC)S(=O)(=O)c1ccc(NC(=O)C(C)(O)C(F)(F)F)cc1 (racemic) | 6.44 |
| CC(O)(C(=O)Nc1ccc(S(N)(=O)=O)cc1)C(F)(F)F (racemic) | 12.8 |

Next, values leading:

| IC50 [µM] | Compound |
| --- | --- |
| > 30 | CC(O)(C(=O)Nc1ccc([C@H](O)c2ccccc2)cc1)C(F)(F)F (mixture of isomers) |
| 5.85 | CC(O)(C(=O)Nc1ccc(S(=O)(=O)N2CCOCC2)cc1)C(F)(F)F (racemic) |
| > 30 | CC(O)(C(=O)Nc1ccc(-c2nn[nH]n2)cc1)C(F)(F)F (racemic) |
| 0.81 | CCN(CC)S(=O)(=O)c1ccc(NC(=O)C(C)(O)C(F)(F)F)cc1 (racemic) |
| 0.88 | CC(O)(C(=O)Nc1ccc(S(=O)(=O)N2CCCC2)cc1)C(F)(F)F (racemic) |
| 30.9 | Cn1nnnc1-c1ccc(NC(=O)C(C)(O)C(F)(F)F)cc1 (racemic) |
| > 30 | CC(C)CN(CC(C)C)S(=O)(=O)c1ccc(NC(=O)C(C)(O)C(F)(F)F)cc1 (racemic) |
| > 30 | CC(O)(C(=O)Nc1ccc(S(=O)(=O)N2CCNCC2)cc1)C(F)(F)F (racemic) |
| 9.25 | CC(O)(C(=O)Nc1ccc(S(=O)(=O)N2CCCCC2)cc1)C(F)(F)F (racemic) |
